From patent publication US20100158863A1, “TRIAZOLOANILINOPYRIMIDINE DERIVATIVES FOR USE AS ANTIVIRAL AGENTS” (ARROW THERAPEUTICS LIMITED, priority 2006, published 2010)
Like-named read-outs stand apart in the source and are kept apart here.

Columns and labels:
HCV replicon 1b (Huh-9B) = experiment: HCV replicon activity, luciferase detection on the replicon plate; assay type: cell-based, HCV genotype 1b; settings: Huh-9B replicon cells, luciferase signal
Text: 1b replicon (Huh.7) described in Science 285, 110-113. • Huh-9B: liver cell line with persistent bicistronic HCV genotype 1b coding sequence: [I3891ucubineo—3-3′_ET] includes firefly luciferase-ubiquitin-neomycin phosphotransferase fusion protein and EMCV-IRES driven non-structural HCV (NS3 to NS5B) coding sequence including cell culture adaptive mutations E1202G, […] and K1846T (Lohmann et al, 2001).
This assay is set up using all 96 wells of flat-bottomed 96-well plates. Plates are set up one day before addition of compounds. The assay then runs for 4 days with ELISA development taking place on the 5th day.
Exponentially growing Huh-9B monolayers are washed with sterile PBS to remove serum and treated with trypsin to detach cells from the flask.
(§1) Cells are suspended in growth media and counted using a haemocytometer. Duplicate 96 well plates are seeded with Huh-9B at a density of 10^4 cells/well in a total volume of 100 μl/well of growth medium without antibiotics as depicted below.
(§2) One of the plates is an opaque white 96-well plate used for IC50 determination based on the luciferase signal (referred as replicon plate), the other one is a clear 96-well plate used for a parallel determination of drug toxicity by methylene blue staining (referred as tox plate). Wells G12 and H12 of the tox plate are left without cells to use as buffer alone background reading.
Plates are then incubated at 37° C. in a 5% CO2 environment for 24 h to obtain a 90% confluent cell monolayer.
(§3) Doubling dilutions of each compound are generated in a separate 96 high volume capacity round bottom plate to twice their initial concentration in the assay using growth medium without antibiotics.
Five compounds (C1 to C5) are tested on each assay plate as illustrated below plus a control compound that is also included in each plate.
(§4) Compounds are tested across an 8 point doubling dilution series. The initial dilution of each compound to be tested is 25 μM and 12.5 μM for the control compound.
DMSO only wells (A1 and A2) at 1% provide the signal corresponding to maximal (100%) luciferase detection. […] The signal from the DMSO wells at 1% (maximal signal) constitutes the assay window.
(§5) For each compound dilution on the 2×96-well dilution plate 100 μl are transferred using a multichannel pipette onto the replicon and tox plates mirror wells which contain […] of medium to obtain the desired final concentration.
Media is tapped out from wells into Virkon and plates are washed once in warm PBS and tapped dry gently.
For each well 20 μl of lysis buffer is added by multichannel pipette. Lysates are stable at this point for several hours.
Luciferase assay buffer is placed it in the luminometer (Lmax, Molecular Devices).
The M injector is primed with 4×300 μl of luciferase assay buffer. The plate to be analyzed is placed in the luminometer and […] of luciferase assay buffer injected automatically into one well followed by 4 seconds integration read out.
After one second delay a second well is injected with 100 μl of luciferase assay buffer followed by 4 seconds integration read out and so forth until all 96 wells are analyzed.
Once the reading is finished the luminometer injection system is washed with deionised water.
The data is acquired using the SOFTmax for Lmax Pro software package.
(§6) SOFTmax data files are exported as Excel or text files. A standard four parameters non-linear regression analysis of the data obtained from each compound is then used to calculate the IC50.
(§7) In the above analysis all replicate wells are meaned. The % of control is then calculated for each concentration point as a percentage of the DMSO control wells.

Huh-9B = experiment: Toxicity determination on the tox plate by methylene blue staining; assay type: cell-based; settings: Huh-9B cells, parallel tox plate
Procedure: as §1, §2, §3, §4, §5
Media is tapped out from wells into Virkon and plates tapped dry gently. To each well 100 μl of 0.5% solution of methylene blue in 50% methanol is added to all wells including blanks (G12 and H12). Plates are left at RT for a minimum of 1 h. Plates are then rinsed gently by immersing in a plastic box with water, tapped dry gently and left open until they are fully dry. Dye is solubilized adding 100 μl of 1% lauroylsarcosine to each well and shaking for 1 h at 37° C. Plates are read on the SpectraMax spectrophotometer at 620 nm wavelength using the SOFTmax Pro software package.
as §6, §7

HCV replicon 1b = experiment: ELISA, combined effect of HCV replication inhibitor with interferon αA; assay type: cell-based; settings: for IC50: Hepatitis C virus
Text: ELISA Protocol as in Example 38
The fractional inhibitory concentratin (FIC) can be used to identify a synergistic interaction.

SMILES: COc1ccc(-c2ccc3ncnc(Nc4ccc(-n5cncn5)cc4)c3c2)cc1OC [Example 10, [6-(3,4-Dimethoxy-phenyl)-quinazolin-4-yl]-(4-[1,2,4]triazol-1-yl-phenyl)-amine]
- IC50 (HCV replicon 1b (Huh-9B); Hepatitis C virus): < 5 µM
- Replicon TD50 (Huh-9B): * (* <25 μM)
- IC50 (HCV replicon 1b; compound alone, read-out: ELISA IC50 against HCV replicon 1b): 200 nM
- IC50 (HCV replicon 1b; read-out: IC50 of compound in combination): ≤ 67 nM
- fractional inhibitory concentration (FIC) (HCV replicon 1b; combination with interferon αA, FIC <0.5 = synergy): 0.336

SMILES: COc1ccc(-c2ccc3ncnc(Nc4ccc(-n5cncn5)cc4)c3c2)cc1OC(C)C [Example 23, [6-(3-Isopropoxy-4-methoxy-phenyl)-quinazolin-4-yl]-(4-[1,2,4]triazol-1-yl-phenyl)-amine]
- IC50 (HCV replicon 1b (Huh-9B); Hepatitis C virus): < 5 µM
- Replicon TD50 (Huh-9B): * (* <25 μM)

SMILES: COc1ccc(-c2ccc3ncnc(Nc4ccc(-n5nc(C(=O)N(C)C)nc5C)cc4)c3c2)cc1OC [Example 30, 1-{-4-[6-(3,4-Dimethoxy-phenyl)-quinazolin-4-ylamino]-phenyl}-5-methyl-1H-[1,2,4]triazole-3-carboxylic acid dimethylamide]
- IC50 (HCV replicon 1b (Huh-9B); Hepatitis C virus): < 5 µM
- Replicon TD50 (Huh-9B): * (* <25 μM)

SMILES: CCOc1ccc(-c2ccc3ncnc(Nc4ccc(-n5cncn5)cc4)c3c2)cc1OCC [Example 11, [6-(3,4-Diethoxy-phenyl)-quinazolin-4-yl]-(4-[1,2,4]triazol-1-yl-phenyl)-amine]
- IC50 (HCV replicon 1b (Huh-9B); Hepatitis C virus): < 5 µM
- Replicon TD50 (Huh-9B): ** (** >25 μM)

SMILES: c1csc(-c2ccc3ncnc(Nc4ccc(-n5cncn5)cc4)c3c2)c1 [Example 17, (6-Thiophen-2-yl-quinazolin-4-yl)-(4-[1,2,4]triazol-1-yl-phenyl)-amine]
- IC50 (HCV replicon 1b (Huh-9B); Hepatitis C virus): < 5 µM
- Replicon TD50 (Huh-9B): ** (** >25 μM)

SMILES: c1coc(-c2ccc3ncnc(Nc4ccc(-n5cncn5)cc4)c3c2)c1 [Example 19]
- IC50 (HCV replicon 1b (Huh-9B)): < 5 µM
- Replicon TD50 (Huh-9B): ** (** >25 μM)

SMILES: COc1ncc(-c2ccc3ncnc(Nc4ccc(-n5cncn5)cc4)c3c2)cn1 [Example 16, [6-(2-Methoxy-pyrimidin-5-yl)-quinazolin-4-yl]-(4-[1,2,4]triazol-1-yl-phenyl)-amine]
- IC50 (HCV replicon 1b (Huh-9B); Hepatitis C virus): < 5 µM
- Replicon TD50 (Huh-9B): ** (** >25 μM)

SMILES: c1nc(Nc2ccc(-n3cncn3)cc2)c2cc(-c3ccc4c(c3)OCCO4)ccc2n1 [Example 15, [6-(2,3-Dihydro-benzo[1,4]dioxin-6-yl)-quinazolin-4-yl]-(4-[1,2,4]triazol-1-yl-phenyl)-amine]
- IC50 (HCV replicon 1b (Huh-9B); Hepatitis C virus): < 5 µM
- Replicon TD50 (Huh-9B): ** (** >25 μM)
